Results published in PMC7747594, “Protease-activated receptor-2 ligands reveal orthosteric and allosteric mechanisms of receptor inhibition” (Communications Biology, 2020).
“And” between values parts separate entries of the source, which are not always exact repeats. Identical values can stand only once.

Legend:
Format in all cases: in vivo
[1] = tested on: myeloperoxidase (MPO) activity; assay: Myeloperoxidase assay on rat paw tissue; details: for MPO activity (unit mg^-1): 2f-induced rat paw oedema, paw tissue, individual animals (Figure 5i); for Myeloperoxidase (MPO) activity increased by 2f-LIGRLO-NH2: pre-treatment, 30 min
Procedure: Rat paw tissues were collected, snap-frozen with liquid N2, and stored at −80 °C. Samples were cut with a scalpel, weighed, and added to MPO buffer (50 mM potassium phosphate buffer, pH 6.0) to a concentration of 200 mg ml^−^1, before homogenising using zirconium oxide beads (1 and 2 mm, Next Advance, USA) and a Bullet Blender® homogeniser (Next Advance, USA). Homogenised tissues were diluted to 100 mg ml^−1 with MPO buffer containing 1% hexadecyl trimethylammonium bromide (Sigma-Aldrich, USA). Samples were then sonicated for 5 min, centrifuged at 13,000 × g for 10 min at 4 °C, and the clear supernatant for each sample was collected.

mast cells [2] = assay: Immunohistochemistry, tryptase-positive (AA1+ve) intact mast cells in rat paw; details: for AA +ve cells (% max): 2f-induced rat paw oedema, individual animals (Figure 5c); for decrease of tryptase-positive mast cells by 2f-LIGRLO-NH2: pre-treatment, 30 min
Procedure: Tissues were then embedded with Optimal Cutting Temperature compound (OCT, Sakura Finetek, USA) and stored at −80 °C before making cryo-sections for histological analysis. Frozen sections (5 µm) were made using a cryostat-microtome (Leica Biosystems, Germany). […] Slides were then dehydrated and mounted in DPX mountant (Sigma-Aldrich, USA). For immunohistochemistry, slides were briefly rinsed with PBS to remove OCT. Except for tryptase staining, antigen retrieval was performed by incubating slides in citrate buffer (0.01 M, pH 6) at 95 °C for 20 min. They were then cooled down briefly and incubated with blocking medium (PBS, 0.1% Triton X-100, 10% horse serum) for 1 h at room temperature in a humidity chamber. Samples were incubated with primary antibody medium (PBS, 0.1% Triton X-100, 4% horse serum; 1:100 primary antibody including – histamine, neutrophil elastase or ED1 antibodies) overnight at 4 °C. The next day, samples were washed with PBS and incubated with the secondary antibody medium (PBS, 0.1% Triton X-100, 4% horse serum, detection antibody 1:200) for 2 h at room temperature. For tryptase staining, slides were incubated with primary antibody medium (as above with tryptase antibody at 1:100 dilution) for 4 h, then the secondary antibody medium for 2 h. Finally, slides were dried, counterstained with DAPI (Invitrogen, Australia), and sealed with clear nail polish. Primary antibodies for tryptase (AA1, ab2378, Abcam, Australia), histamine (H7403, Sigma-Aldrich, USA), neutrophil elastase (ab21595, Abcam, Australia) and ED1 (ab31630, Abcam, Australia) were purchased from commercial sources. Secondary detection antibody was purchased from Abcam, Australia.

mast cells [3] = assay: Immunohistochemistry, histamine release in rat paw; details: pre-treatment; 30 min
Procedure: Rat paw tissues were collected, fixed in 10% neutral-buffered formalin (Sigma-Aldrich) for 2 h at 4 °C, transferred into falcon tubes containing 25% sucrose in PBS and left overnight at 4 °C. Tissues were then embedded with Optimal Cutting Temperature compound (OCT, Sakura Finetek, USA) and stored at −80 °C before making cryo-sections for histological analysis. Frozen sections (5 µm) were made using a cryostat-microtome (Leica Biosystems, Germany). For mast cell staining, slides were briefly washed with distilled water before staining with 0.1% toluidine blue (Sigma-Aldrich, pH 2.5) for 3 min. Slides were then dehydrated and mounted in DPX mountant (Sigma-Aldrich, USA). For immunohistochemistry, slides were briefly rinsed with PBS to remove OCT. Except for tryptase staining, antigen retrieval was performed by incubating slides in citrate buffer (0.01 M, pH 6) at 95 °C for 20 min. They were then cooled down briefly and incubated with blocking medium (PBS, 0.1% Triton X-100, 10% horse serum) for 1 h at room temperature in a humidity chamber. Samples were incubated with primary antibody medium (PBS, 0.1% Triton X-100, 4% horse serum; 1:100 primary antibody including – histamine, neutrophil elastase or ED1 antibodies) overnight at 4 °C. […] Tryptase-, neutrophil elastase- and ED1-positive cells were quantified using FIJI/ImageJ 1.42q software, USA.

SMILES	MPO activity (unit mg^-1) [1]	Myeloperoxidase (MPO) activity increased by 2f-LIGRLO-NH2 [1]	AA +ve cells (% max) (mast cells [2])	decrease of tryptase-positive mast cells by 2f-LIGRLO-NH2 (mast cells [2])	histamine release (mast cells [3])
C[C@@H](C1CCCCC1)n1c(-c2cc3c(cc2Br)OCO3)nc2cc(C(=O)Nc3ccc(C#N)cc3)ccc21 [AZ3451]	0.2692 unit mg^-1 and 0.2802 unit mg^-1 and 0.295 unit mg^-1 and 0.3577 unit mg^-1	reduced almost to baseline	91.7692 % max and 45.8846 % max and 58.1835 % max and 66.6982 % max	partly blocked	blocked
CCCc1cc(F)ccc1C(O)c1ncc[nH]1 (stereo not shown) [AZ8838]	0.2682 unit mg^-1 and 0.2003 unit mg^-1 and 0.454 unit mg^-1 and 0.2121 unit mg^-1 and 0.4127 unit mg^-1	reduced almost to baseline	70.0073 % max and 71.1692 % max and 108.061 % max and 60.4212 % max and 59.2593 % max	partly blocked	blocked
